{"source": "patent US11191745B2", "about": "“Silica nanoparticle with an insoluble drug” (CITY OF HOPE, priority 2017, dated 2021)", "origin": "cited, not measured here", "test_system": "plasma proteins", "conditions": "systemically administered", "data": [{"smiles": "CC(=O)O[C@H]1C(=O)[C@@]2(C)[C@H]([C@H](OC(=O)c3ccccc3)[C@]3(O)C[C@H](OC(=O)[C@H](O)[C@@H](NC(=O)c4ccccc4)c4ccccc4)C(C)=C1C3(C)C)[C@]1(OC(C)=O)CO[C@@H]1C[C@@H]2O", "note": "[PTX, Paclitaxel]", "values": [{"measurement": "drug bound to plasma proteins", "result": "more than 90%"}]}]}
